Experimental data: PubChem BioAssay (NCI)
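Method: 48-hour compound exposure of cells in 96-well plates, five concentrations, linear interpolation of endpoints. Here, GI50 denotes the concentration required for 50% inhibition of growth. The concentration for full growth arrest is given as TGI.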

Tests used:
Assay in all cases: inhibition of tumour cell growth, NCI panel, 48 h
[1] = tested on: SNB-19 CNS
[2] = tested on: UO-31 renal
[3] = tested on: ACHN renal
[4] = tested on: TK-10 renal
[5] = tested on: MDA-MB-231 breast
[6] = tested on: EKVX NSCLC
[7] = tested on: M14 melanoma
[8] = tested on: SN12C renal
[9] = tested on: KM12 colon
[10] = tested on: NCI/ADR-RES ovarian
[11] = tested on: PC-3 prostate
[12] = tested on: SK-MEL-28 melanoma
[13] = tested on: A549 NSCLC
[14] = tested on: IGROV1 ovarian
[15] = tested on: MDA-N
[16] = tested on: CAKI-1 renal
[17] = tested on: OVCAR-3 ovarian
[18] = tested on: OVCAR-4 ovarian
[19] = tested on: OVCAR-8 ovarian
[20] = tested on: SF-539 CNS
[21] = tested on: SNB-75 CNS
[22] = tested on: HT29 colon
[23] = tested on: HOP-92 NSCLC
[24] = tested on: SF-295 CNS
[25] = tested on: HCT-116 colon
[26] = tested on: SF-268 CNS
[27] = tested on: RXF 393 renal
[28] = tested on: DU-145 prostate
[29] = tested on: MDA-MB-435
[30] = tested on: OVCAR-5 ovarian
[31] = tested on: A498 renal
[32] = tested on: COLO 205 colon
[33] = tested on: U251 CNS
[34] = tested on: NCI-H23 lung
[35] = tested on: HCT-15 colon
[36] = tested on: SK-MEL-5 melanoma
[37] = tested on: NCI-H226 lung
[38] = tested on: SW-620 colon
[39] = tested on: UACC-257 melanoma
[40] = tested on: SK-OV-3 ovarian
[41] = tested on: HOP-62 NSCLC
[42] = tested on: K-562 leukemia
[43] = tested on: LOX IMVI melanoma
[44] = tested on: MCF7 breast
[45] = tested on: SK-MEL-2 melanoma
[46] = tested on: CCRF-CEM leukemia
[47] = tested on: RPMI-8226 leukemia
[48] = tested on: MOLT-4 leukemia
[49] = tested on: SR leukemia
[50] = tested on: UACC-62 melanoma
[51] = tested on: NCI-H460 lung
[52] = tested on: NCI-H522 lung
[53] = tested on: HS 578T breast
[54] = tested on: T-47D breast
[55] = tested on: 786-0 renal
[56] = tested on: BT-549 breast
[57] = tested on: HL-60(TB) leukemia
[58] = tested on: MALME-3M melanoma
[59] = tested on: HCC-2998 colon

`COc1cc2c(cc1OC)C1C[C@]3(CCN1CC2)C(=O)N(c1ccccc1)C(=O)N3C(C)=O` (some centres undefined) was tested, and the TGI [1] was over 200 µM, the TGI [2] was over 200 µM and the TGI [3] was over 200 µM. It also gave a TGI [4] of over 200 µM, a TGI [5] of over 200 µM and a TGI [6] of over 200 µM. The TGI [7] was over 200 µM, the TGI [8] was over 200 µM and the TGI [9] was over 200 µM. It also gave a TGI [10] of over 200 µM, a TGI [11] of over 200 µM and a TGI [12] of over 200 µM. For the same compound, the TGI [13] was over 200 µM, the TGI [14] was over 200 µM and the TGI [15] was over 200 µM. The TGI [16] was over 200 µM, the TGI [17] was over 200 µM and the TGI [18] was over 200 µM. It also gave a TGI [19] of over 200 µM, a TGI [20] of over 200 µM and a TGI [21] of over 200 µM. It also gave a TGI [22] of over 200 µM, a TGI [23] of over 200 µM and a TGI [24] of over 200 µM. The TGI [25] was over 200 µM, the TGI [26] was over 200 µM and the TGI [27] was over 200 µM. It also gave a TGI [28] of over 200 µM, a TGI [29] of over 200 µM and a TGI [30] of over 200 µM. For the same compound, the TGI [31] was over 200 µM, the TGI [32] was over 200 µM and the TGI [33] was over 200 µM. It also gave a TGI [34] of over 200 µM, a TGI [35] of over 200 µM and a TGI [36] of over 200 µM. The TGI [37] was over 200 µM and the TGI [38] was over 200 µM.
With `CC1(C)N=C(N)N=C(N)N1c1ccc(CCCCc2ccc(Cl)c(S(=O)(=O)F)c2)c(Cl)c1` the GI50 [39] was 3.78 µM, the TGI [39] was 18.4 µM and the GI50 [1] was 3.07 µM. For the same compound, the TGI [1] was 20.6 µM, the GI50 [2] was 8.2 µM and the TGI [2] was 28.5 µM. For the same compound, the GI50 [40] was 6.79 µM, the TGI [40] was 22.2 µM and the GI50 [3] was 6.56 µM. For the same compound, the TGI [3] was 21.1 µM, the GI50 [4] was 12.3 µM and the TGI [4] was 48.8 µM. The GI50 [5] was 4.03 µM, the TGI [5] was 20.6 µM and the GI50 [6] was 2.81 µM. The TGI [6] was 37.7 µM, the GI50 [7] was 0.756 µM and the TGI [7] was over 41.2 µM. For the same compound, the GI50 [41] was 5.82 µM, the TGI [41] was over 43.7 µM and the GI50 [8] was 0.306 µM. The TGI [8] was 16.2 µM, the GI50 [9] was 1.36 µM and the TGI [9] was 7.81 µM. The GI50 [42] was 0.127 µM, the TGI [42] was 15.8 µM and the GI50 [10] was 40 µM. The TGI [10] was over 100 µM, the GI50 [11] was 0.214 µM and the TGI [11] was 15.1 µM. For the same compound, the GI50 [12] was 1.96 µM, the TGI [12] was 16.5 µM and the GI50 [13] was 0.319 µM. For the same compound, the TGI [13] was 3.98 µM, the GI50 [43] was 0.13 µM and the TGI [43] was 17.5 µM. The GI50 [14] was 0.117 µM, the TGI [14] was 20.7 µM and the GI50 [44] was 0.529 µM. The TGI [44] was 16.9 µM, the GI50 [16] was 1.82 µM and the TGI [16] was 10.5 µM. It also gave a GI50 [17] of 2.22 µM, a TGI [17] of 15.1 µM and a GI50 [18] of 4.51 µM. The TGI [18] was 49.7 µM, the GI50 [45] was 2.45 µM and the TGI [45] was over 33.6 µM. For the same compound, the GI50 [46] was 0.168 µM, the TGI [46] was 8.65 µM and the GI50 [19] was 0.557 µM. It also gave a TGI [19] of 24.5 µM, a GI50 [20] of 0.542 µM and a TGI [20] of 13 µM. The GI50 [21] was 10.4 µM, the TGI [21] was over 52.5 µM and the GI50 [22] was 0.264 µM. For the same compound, the TGI [22] was 15.7 µM, the GI50 [47] was 0.527 µM and the TGI [47] was 3.32 µM. It also gave a GI50 [23] of 1.08 µM, a TGI [23] of 15.2 µM and a GI50 [24] of 0.995 µM. For the same compound, the TGI [24] was 10.6 µM, the GI50 [25] was 0.31 µM and the TGI [25] was over 39.1 µM. The GI50 [48] was 0.622 µM, the TGI [48] was 14.8 µM and the GI50 [26] was 0.509 µM. For the same compound, the TGI [26] was 15.9 µM, the GI50 [49] was 0.186 µM and the TGI [49] was 3.36 µM. It also gave a GI50 [50] of 0.372 µM, a TGI [50] of over 47.9 µM and a GI50 [27] of 5.93 µM. For the same compound, the TGI [27] was 27.8 µM, the GI50 [28] was 0.769 µM and the TGI [28] was 16.5 µM. For the same compound, the GI50 [51] was 0.315 µM, the TGI [51] was 16.5 µM and the GI50 [52] was 0.71 µM. For the same compound, the TGI [52] was 13.3 µM, the GI50 [53] was 9.71 µM and the TGI [53] was 34.2 µM. For the same compound, the GI50 [29] was 0.431 µM, the TGI [29] was 18.7 µM and the GI50 [30] was 13.9 µM. For the same compound, the TGI [30] was 27.1 µM, the GI50 [31] was 5.56 µM and the TGI [31] was 25.7 µM. The GI50 [54] was 3.11 µM, the TGI [54] was 15.1 µM and the GI50 [55] was 1.63 µM. The TGI [55] was over 39.7 µM, the GI50 [56] was 1.55 µM and the TGI [56] was 12.5 µM. The GI50 [32] was 1.71 µM, the TGI [32] was 7.98 µM and the GI50 [33] was 0.437 µM. It also gave a TGI [33] of 19.6 µM, a GI50 [57] of 0.38 µM and a TGI [57] of 4.1 µM. It also gave a GI50 [58] of 2.36 µM, a TGI [58] of 12.5 µM and a GI50 [34] of 0.843 µM. For the same compound, the TGI [34] was 19 µM, the GI50 [35] was 0.597 µM and the TGI [35] was over 100 µM. For the same compound, the GI50 [59] was 0.922 µM, the TGI [59] was 15.1 µM and the GI50 [36] was 0.471 µM. For the same compound, the TGI [36] was 11.8 µM, the GI50 [37] was 4.18 µM and the TGI [37] was 37.6 µM. It also gave a GI50 [38] of 0.147 µM and a TGI [38] of 15.4 µM.
